Assay results taken from US7135466B2 (Kirin Beer Kabushiki Kaisha, priority 1999, dated 2006).
Read-outs that look alike come from different tables or passages of the source.

How the values were obtained:
PDGF-Ra = target: T1, PDGF-Ra (Homo sapiens, UniProt P16234); assay: Inhibitory activity against PDGF-Ra phosphorylation by PDGF-AA stimulation using G292; type: cell-based; conditions: for IC50: > means inhibition at indicated concentration not more than 50%, < and << not less than 50%, read-out: PDGF (E) IC50; for inhibition at 0.1 µM: G292, at 100 nM, read-out: PDGF (E) inhibition (%) at 100 nM
T1 construct: host or cells: G-292 human osteosarcoma cells
T1 sequence (P16234 24-1089): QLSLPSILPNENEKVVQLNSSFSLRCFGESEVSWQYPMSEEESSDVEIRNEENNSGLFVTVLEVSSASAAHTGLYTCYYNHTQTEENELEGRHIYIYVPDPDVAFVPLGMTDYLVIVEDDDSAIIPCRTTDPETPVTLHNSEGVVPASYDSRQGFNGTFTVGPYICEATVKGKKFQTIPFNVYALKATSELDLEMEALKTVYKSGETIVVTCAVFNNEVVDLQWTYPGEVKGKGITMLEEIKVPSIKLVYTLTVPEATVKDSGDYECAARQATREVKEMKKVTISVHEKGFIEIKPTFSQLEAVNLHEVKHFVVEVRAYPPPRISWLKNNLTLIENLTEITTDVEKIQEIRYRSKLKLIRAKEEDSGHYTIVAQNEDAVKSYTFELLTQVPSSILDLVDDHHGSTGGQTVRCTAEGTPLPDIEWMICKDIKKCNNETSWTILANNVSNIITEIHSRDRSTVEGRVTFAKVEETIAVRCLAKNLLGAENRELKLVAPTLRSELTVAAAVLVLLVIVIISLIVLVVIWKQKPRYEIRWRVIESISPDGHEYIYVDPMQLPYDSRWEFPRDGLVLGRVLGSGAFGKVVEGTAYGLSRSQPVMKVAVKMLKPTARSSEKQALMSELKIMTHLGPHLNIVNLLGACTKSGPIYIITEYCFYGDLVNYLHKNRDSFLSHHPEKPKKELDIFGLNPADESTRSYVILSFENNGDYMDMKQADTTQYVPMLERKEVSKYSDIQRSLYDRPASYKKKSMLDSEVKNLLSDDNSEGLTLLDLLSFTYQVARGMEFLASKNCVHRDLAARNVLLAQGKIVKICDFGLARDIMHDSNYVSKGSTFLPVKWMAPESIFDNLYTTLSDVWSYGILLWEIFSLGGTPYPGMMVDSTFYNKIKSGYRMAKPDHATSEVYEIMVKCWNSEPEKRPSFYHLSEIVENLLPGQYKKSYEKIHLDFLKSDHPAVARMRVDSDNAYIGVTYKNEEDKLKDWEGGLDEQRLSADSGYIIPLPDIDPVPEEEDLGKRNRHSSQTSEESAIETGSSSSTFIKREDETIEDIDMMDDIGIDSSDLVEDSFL
Outline: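 Read-out: A450 from a sandwich ELISA (PY-20 capture, anti-PDGF-Ra detection, peroxidase colour) of lysates from G-292 cells given compound for 1 hr at 37 °C before a 5 min challenge with PDGF-AA at 50 ng/ml.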

c-kit = target: T2, c-kit (Homo sapiens, UniProt P10721); assay: Inhibitory activity against c-kit autophosphorylation (MO7e cells, h-SCF); type: cell-based; conditions: for IC50: MO7e cells, read-out: c-kit IC50; for inhibition at 1 µM: Mo7e, at 1000 nM
T2 construct: MO7e (human megakaryocytic leukemia cell line) which had been arrested for 20 hr; endogenous in cells; host or cells: MO7e human megakaryocytic leukemia cell line
T2 sequence (P10721 26-976): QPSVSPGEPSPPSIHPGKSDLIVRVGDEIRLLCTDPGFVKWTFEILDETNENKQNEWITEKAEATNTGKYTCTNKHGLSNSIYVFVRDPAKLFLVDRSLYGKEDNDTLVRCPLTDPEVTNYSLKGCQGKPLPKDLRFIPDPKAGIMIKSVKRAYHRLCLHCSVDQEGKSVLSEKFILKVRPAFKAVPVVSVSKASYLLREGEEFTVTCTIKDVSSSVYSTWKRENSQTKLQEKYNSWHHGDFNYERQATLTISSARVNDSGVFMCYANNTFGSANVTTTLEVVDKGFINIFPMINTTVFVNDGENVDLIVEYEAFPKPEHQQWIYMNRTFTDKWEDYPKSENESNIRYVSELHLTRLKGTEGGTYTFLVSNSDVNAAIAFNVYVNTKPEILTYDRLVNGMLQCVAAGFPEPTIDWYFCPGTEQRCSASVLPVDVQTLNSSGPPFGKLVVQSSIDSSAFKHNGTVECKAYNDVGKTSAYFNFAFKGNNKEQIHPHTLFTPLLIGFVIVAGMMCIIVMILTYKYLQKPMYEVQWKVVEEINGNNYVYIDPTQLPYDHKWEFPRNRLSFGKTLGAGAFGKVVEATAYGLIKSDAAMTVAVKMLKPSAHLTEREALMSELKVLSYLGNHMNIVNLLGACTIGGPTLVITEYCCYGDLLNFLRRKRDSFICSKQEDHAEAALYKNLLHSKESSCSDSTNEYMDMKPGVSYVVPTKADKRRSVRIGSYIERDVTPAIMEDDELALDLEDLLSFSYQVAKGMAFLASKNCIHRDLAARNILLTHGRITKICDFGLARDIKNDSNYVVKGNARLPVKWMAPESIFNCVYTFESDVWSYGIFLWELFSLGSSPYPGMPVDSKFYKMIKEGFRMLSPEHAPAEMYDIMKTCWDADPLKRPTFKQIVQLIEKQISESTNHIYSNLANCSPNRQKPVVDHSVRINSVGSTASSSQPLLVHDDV
Outline: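 First, human megakaryocytic leukemia MO7e cells arrested 20 hr receive compound for one hour. Second, SCF stimulation (50 ng/ml) runs 5 min, after which cells are solubilized. Third, tyrosine-phosphorylated c-kit in the lysate is quantified by sandwich ELISA with absorbance at 450 nm.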

[1] = figure within parentheses in >100( )
[2] = figure within parentheses in −( ) or >1000( )
[3] = figure in parentheses in >100( )

| SMILES | IC50 (PDGF-Ra) [nM] | IC50 (PDGF-Ra; Pharmacological Test Example 1) [nM] | IC50 (c-kit; h-SCF 50 ng/ml) [nM] | further results |
| --- | --- | --- | --- | --- |
| COc1cc2nccc(Oc3ccc(NC(=S)NCCCN4CCOCC4)c(C)c3C)c2cc1OC [Example 548, N-{4-[(6,7-Dimethoxy-4-quinolyl)oxy]-2,3-dimethylphenyl}-N′-[3-(1-morpholino)propyl]thiourea] | 46 |  |  | IC50 (c-kit; 50 ng/ml h-SCF): 268 nM |
| COc1cc2nccc(Oc3ccc(NC(=O)OC(C)C)cc3)c2cc1OC [Example 324, Isopropyl N-{4-[(6,7-dimethoxy-4-quinolyl)oxy]phenyl}carbamate] |  | 12 | 64 |  |
| COc1cc2ncnc(Oc3ccc(NC(=S)NCCN4CCCC4)cc3)c2cc1OC [Example 530, N-{4-[(6,7-Dimethoxy-4-quinazolinyl)oxy]phenyl}-N′-[2-(1-pyrrolidyl)ethyl]thiourea] | > 100 |  |  | inhibition at 0.1 µM (PDGF-Ra; [1]): 45%; inhibition at 1 µM (c-kit; [2]): 34% |
| COc1cc2nccc(Oc3ccc(NC(=S)NC(=O)COCc4ccccc4)cc3F)c2cc1OC [Example 1032, N-[2-(Benzyloxy)acetyl]-N′-{4-[(6,7-dimethoxy-4-quinolyl)oxy]-3-fluorophenyl}thiourea] | < 10 |  |  | IC50 (c-kit; h-SCF stimulation): 321 nM |
| COc1cc2nccc(Oc3ccc(NC(=O)Oc4c(OC)cccc4OC)c(C)c3C)c2cc1OC [Example 282, 2,6-Dimethoxyphenyl N-{4-[(6,7-dimethoxy-4-quinolyl)oxy]-2,3-dimethylphenyl}carbamate] |  | 34 | 48 |  |
| COc1cc2ncnc(Oc3ccc(NC(=O)OCc4ccccc4Cl)c([N+](=O)[O-])c3)c2cc1OC [Example 504, 2-Chlorobenzyl N-{4-[(6,7-dimethoxy-4-quinazolinyl)oxy]-2-nitrophenyl}carbamate] | 46 |  |  | inhibition at 1 µM (c-kit; [2]): 42% |
| COc1cc2ncnc(Oc3ccc(NC(=O)N4CCN(c5ccccc5)CC4)cc3)c2cc1OC [Example 691, N1-{4-[(6,7-Dimethoxy-4-quinazolinyl)oxy]phenyl}-4-phenyl-1-piperazinecarboxamide] | > 100 |  |  | inhibition at 0.1 µM (PDGF-Ra; [1]): 10%; inhibition at 1 µM (c-kit; [2]): 18% |
| COc1cc2nccc(Oc3ccc(OCCCOc4ccccc4F)cc3)c2cc1OC [Example 796, 4-{4-[3-(2-Fluorophenoxy)propoxy]phenoxy}-6,7-dimethoxyquinoline] | 15 |  |  | IC50 (c-kit; 50 ng/ml h-SCF): 394 nM |
| COc1cc2nccc(Oc3ccc(NC(=O)Oc4ccccc4C(C)(C)C)cc3)c2cc1OC [Example 300] |  | < 10 |  | inhibition at 1 µM (c-kit; figure in parentheses in −( )): 43% |
| COc1cc2ncnc(Oc3ccc(NC(=O)NC4CCN(Cc5ccc(C(C)(C)C)cc5)C4)cc3)c2cc1OC (stereo not drawn) [Example 583, N-{1-[4-(Tert-butyl)benzyl]tetrahydro-1H-3-pyrrolyl}-N′-{4-[(6,7-dimethoxy-4-quinazolinyl)oxy]phenyl}urea] | > 100 |  |  | inhibition at 0.1 µM (PDGF-Ra; [1]): 17%; inhibition at 1 µM (c-kit; [2]): 18% |
| COc1cc2nccc(Oc3ccc(NC(=O)NC4CCN(Cc5ccccc5C)C4)cc3)c2cc1OC (stereo not drawn) [Example 574, N-{4-[(6,7-Dimethoxy-4-quinolyl)oxy]phenyl}-N′-[1-(2-methylbenzyl)tetrahydro-1H-3-pyrrolyl]urea] | 45 |  |  | IC50 (c-kit; 50 ng/ml h-SCF): 147 nM |
| CCCC(CCN1CCOCC1)OC(=O)Nc1ccc(Oc2ccnc3cc(OC)c(OC)cc23)cc1 (stereo not drawn) [Example 437, 1-(2-Morpholinoethyl)butyl N-{4-[(6,7-dimethoxy-4-quinolyl)oxy]phenyl}carbamate] | 48 |  |  | IC50 (c-kit; 50 ng/ml h-SCF): 250 nM |
| COc1cc2nccc(Oc3ccc(NC(=O)NN4CCCCCC4)cc3)c2cc1OC [Example 608, N-{4-[(6,7-Dimethoxy-4-quinolyl)oxy]phenyl}-N′-(1-homopiperidinyl)urea] | < 10 |  |  | IC50 (c-kit; 50 ng/ml h-SCF): 201 nM |
| COc1ccc(OCCCOC(=O)Nc2ccc(Oc3ncnc4cc(OC)c(OC)cc34)cc2Cl)cc1 [Example 46, 3-(4-Methoxyphenoxy)propyl N-{2-chloro-4-[(6,7-dimethoxy-4-quinazolinyl)oxy]phenyl}carbamate] |  | 22 | 388 |  |
| CCCCCCOC(=O)Nc1ccc(Oc2ncnc3cc(OC)c(OC)cc23)cc1 [Example 335, Hexyl N-{4-[(6,7-dimethoxy-4-quinazolinyl)oxy]phenyl}carbamate] |  | < 10 | < 30 |  |
| COc1cc2nccc(Oc3ccc(NC(=S)NC(=O)c4cccc(C)c4)cc3)c2cc1OC [Example 930, N-{4-[(6,7-Dimethoxy-4-quinolyl)oxy]phenyl}-N′-(3-methylbenzoyl)thiourea] | < 10 |  |  | IC50 (c-kit; h-SCF stimulation): 184 nM |
| COc1cc2nccc(Oc3cc(C)c(NC(=O)OC(C)c4cccc(Br)c4)cc3C)c2cc1OC (stereo not drawn) [Example 119, 1-(3-Bromophenyl)ethyl N-{4-[(6,7-dimethoxy-4-quinolyl)oxy]-2,5-dimethylphenyl}carbamate] |  | > 100 |  | inhibition at 1 µM (c-kit; figure in parentheses in −( )): 31% |
| CCCCCCOC(=O)Nc1ccc(Oc2ccnc3cc(OC)c(OC)cc23)c(C)c1C [Example 261, Hexyl N-{4-[(6,7-Dimethoxy-4-quinolyl)oxy]-2,3-dimethylphenyl}carbamate] |  | 4 | 44 |  |
| COc1cc2nccc(Oc3ccc(NC(=O)OCCOc4ccccc4F)c(C)c3C)c2cc1OC [Example 204, 2-(2-Fluorophenoxy)ethyl N-{4-[(6,7-dimethoxy-4-quinolyl)oxy]-2,3-dimethylphenyl}carbamate] |  | 28 | 79 |  |
| COc1cccc(OC(=O)Nc2ccc(Oc3ccnc4cc(OC)c(OC)cc34)c(C)c2C)c1 [Example 291, 3-Methoxyphenyl N-{4-[(6,7-dimethoxy-4-quinolyl)oxy]-2,3-dimethylphenyl}carbamate] |  | 26 | 124 |  |
| COc1cc2ncnc(Oc3ccc(NC(=O)OCCCOc4ccccc4Cl)cc3)c2cc1OC [Example 19, 3-(2-Chlorophenoxy)propyl N-{4-[(6,7-dimethoxy-4-quinazolinyl)oxy]phenyl}carbamate] |  | < 10 | 41 |  |
| COc1cc2nccc(Oc3ccc(NC(=S)NC(=O)c4ccc5c(c4)OCO5)cc3Cl)c2cc1OC [Example 1126, N-(1,3-Benzodioxol-5-ylcarbonyl)-N′-{3-chloro-4-[(6,7-dimethoxy-4-quinolyl)oxy]phenyl}thiourea] | > 100 |  |  | inhibition at 0.1 µM (PDGF-Ra; [3]): 70%; inhibition at 1 µM (c-kit; figure in parentheses in −( )): 35% |

Continued, in another order:

| IC50 (PDGF-Ra) [nM] | IC50 (PDGF-Ra; Pharmacological Test Example 1) [nM] | IC50 (c-kit; h-SCF 50 ng/ml) [nM] | SMILES | further results |
| --- | --- | --- | --- | --- |
|  | < 10 | 198 | CCCC(CC)OC(=O)Nc1ccc(Oc2ncnc3cc(OC)c(OC)cc23)cc1 (stereo not drawn) [Example 337, 1-Ethylbutyl N-{4-[(6,7-dimethoxy-4-quinazolinyl)oxy]phenyl}carbamate] |  |
|  | < 10 | 60 | CCCCOC(=O)Nc1cc(C)c(Oc2ccnc3cc(OC)c(OC)cc23)cc1C [Example 322, Butyl N-{4-[(6,7-dimethoxy-4-quinolyl)oxy]-2,5-dimethylphenyl}carbamate] |  |
| 28 |  |  | COc1cc2nccc(Oc3ccc(NC(=S)NC(=O)Cc4ccccc4)cc3)c2cc1OC [Example 1022, N-{4-[(6,7-Dimethoxy-4-quinolyl)oxy]phenyl}-N′-(2-phenylacetyl)thiourea] | IC50 (c-kit; h-SCF stimulation): 202 nM |
| < 10 |  |  | COc1cccc(NC(=O)COc2ccc(Oc3ncnc4cc(OC)c(OC)cc34)cc2)c1 [Example 800, N1-(3-Methoxyphenyl)-2-{4-[(6,7-dimethoxy-4-quinazolinyl)oxy]phenoxy}acetamide] | IC50 (c-kit; 50 ng/ml h-SCF): 30 nM |
|  | 16 | 413 | CCCC(CC)OC(=O)Nc1cc(C)c(Oc2ccnc3cc(OC)c(OC)cc23)cc1C (stereo not drawn) [Example 276, 1-Ethylbutyl N-{4-[(6,7-dimethoxy-4-quinolyl)oxy]-2,5-dimethylphenyl}carbamate] |  |
| > 100 |  |  | COc1cc2nccc(Oc3ccc(NC(=S)NC(=O)c4ccccc4OC)c(Cl)c3)c2cc1OC [Example 1103, N-{2-Chloro-4-[(6,7-dimethoxy-4-quinolyl)oxy]phenyl}-N′-(2-methoxybenzoyl)thiourea] | inhibition at 0.1 µM (PDGF-Ra; [3]): 25%; inhibition at 1 µM (c-kit; figure in parentheses in −( )): 3% |
|  | 19 | 226 | COc1cc2nccc(Oc3cc(C)c(NC(=O)OCC4CCCC4)cc3C)c2cc1OC [Example 395, Cyclopentylmethyl N-{4-[(6,7-dimethoxy-4-quinolyl)oxy]-2,5-dimethylphenyl}carbamate] |  |
|  | < 3 | 57 | COc1cc2nccc(Oc3ccc(NC(=O)OCc4ccccc4Cl)c(C)c3C)c2cc1OC [Example 235, 2-Chlorobenzyl N-{4-[(6,7-dimethoxy-4-quinolyl)oxy]-2,3-dimethylphenyl}carbamate] |  |
|  | < 10 | 47 | COc1cc2nccc(Oc3ccc(NC(=O)OC4CCCC4)c(C)c3C)c2cc1OC [Example 365, Cyclopentyl N-{4-[(6,7-dimethoxy-4-quinolyl)oxy]-2,3-dimethylphenyl}carbamate] |  |
| 58 |  |  | CCN(C(=O)OC1CCCCCC1)c1ccc(Oc2ncnc3cc(OC)c(OC)cc23)cc1Cl [Example 489, Cycloheptyl N-{2-chloro-4-[(6,7-dimethoxy-4-quinazolinyl)oxy]phenyl}-N-ethylcarbamate] | IC50 (c-kit; 50 ng/ml h-SCF): 637 nM |
